Source: patent US20120040930A1, “TETRACYCLIC TERPENE SERIES COMPOUNDS, METHODS FOR PREPARING SAME, USES THEREOF AS MEDICINES AND PHARMACEUTICAL COMPOUNDS CONTAINING SAME” (priority 2005, published 2012)

target: T1, acetylcholinesterase (AChE) isolated from Electrophorus electricus (Electrophorus electricus, UniProt O42275); test: biochemical; details: AChE IC50
T1 construct: AChE isolated from Electrophorus electricus; from tissue
T1 sequence (O42275 24-633): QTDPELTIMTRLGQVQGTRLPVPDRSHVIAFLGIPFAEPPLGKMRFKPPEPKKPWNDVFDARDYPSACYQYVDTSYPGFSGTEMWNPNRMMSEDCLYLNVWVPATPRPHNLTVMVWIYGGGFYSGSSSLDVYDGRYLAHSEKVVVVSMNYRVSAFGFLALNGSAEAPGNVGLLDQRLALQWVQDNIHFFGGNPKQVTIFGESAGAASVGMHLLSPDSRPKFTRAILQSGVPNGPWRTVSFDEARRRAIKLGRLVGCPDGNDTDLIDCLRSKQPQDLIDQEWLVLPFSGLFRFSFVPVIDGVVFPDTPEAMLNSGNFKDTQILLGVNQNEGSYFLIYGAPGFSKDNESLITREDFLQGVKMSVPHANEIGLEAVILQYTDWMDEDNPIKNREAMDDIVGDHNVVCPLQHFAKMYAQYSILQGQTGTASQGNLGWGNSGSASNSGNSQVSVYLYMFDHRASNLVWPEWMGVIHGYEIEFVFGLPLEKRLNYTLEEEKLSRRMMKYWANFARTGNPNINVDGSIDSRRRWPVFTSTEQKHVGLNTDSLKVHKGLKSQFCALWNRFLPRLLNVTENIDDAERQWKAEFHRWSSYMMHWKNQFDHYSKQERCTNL

Point of comparison: `CC[C@H](C)C(=O)N[C@H]1CC=C2C[C@H]3C(=O)C[C@]4(C)[C@@H]([C@H](C)N(C)C)[C@H](OC(C)=O)C[C@@]4(C)[C@@H]3CC[C@H]2[C@]1(C)CO` [Compound 65], IC50 7.94 µM. Against it:
- CC(C)C(=O)N[C@H]1CCC23C[C@]24C(=O)C[C@]2(C)[C@@H]([C@H](C)N(C)C)[C@H](O)C[C@@]2(C)[C@@H]4CC[C@H]3[C@]1(C)CN (stereo partly drawn) [Compound 49, (20S)-20-dimethylamino-3β-(isobutyrylamino)-9,19-cyclo-4α-aminomethyl-4β,14α-dimethyl-5α,9β-pregnan-16α-ol-11-one] — 5.9-fold lower, 1.34 µM

same assay, conditions: AChE isolated from Electrophorus electricus; read-out: AChE IC50

Point of comparison: `CC(C)C(=O)NC1CCC23C[C@]24C(=O)C[C@]2(C)[C@@H]([C@H](C)N(C)C)[C@H](OC(=O)C(C)(C)C)C[C@@]2(C)[C@@H]4CC[C@H]3[C@]1(C)CN` (stereo partly drawn) [Compound 50, (20S)-3β-isobutyrylamino-20-dimethylamino-9,19-cyclo-4α-aminomethyl-4β,14α-dimethyl-16α-pivalyl-5α,9β-pregnan-11-one], IC50 1.33 µM. Against it:
- CC(=O)OC[C@]1(C)[C@@H](NC(=O)C(C)C)CCC23C[C@]24C(=O)C[C@]2(C)[C@@H]([C@H](C)N(C)C)[C@H](OC(C)=O)C[C@@]2(C)[C@@H]4CC[C@H]31 (stereo partly drawn) [Compound 42, (20S)-16α-acetyl-3β-isobutyrylamino-20-dimethylamino-9,19-cyclo-4β,14α-dimethyl-4α-acetylmethyl-5α,9β-pregnan-11-one] — higher, > 100 µM
- CC(C)C(=O)N[C@H]1CCC23C[C@]24C(=O)C[C@]2(C)[C@@H]([C@H](C)N(C)C)[C@H](O)C[C@@]2(C)[C@@H]4CC[C@H]3[C@]1(C)C=O (stereo partly drawn) [Compound 44, (20S)-3β-isobutyrylamino-20-dimethylamino-9,19-cyclo-4β,14α-dimethyl-4α-formyl-5α,9β-pregnan-16α-ol-11-one] — higher, > 100 µM
- CC[C@H](C)C(=O)N[C@H]1CC=C2C[C@H]3C(=O)C[C@]4(C)[C@@H]([C@H](C)N(C)C)[C@H](O)C[C@@]4(C)[C@@H]3CC[C@H]2[C@]1(C)C=O [Compound 67, (20S)-10(9->1)-abeo-20-dimethylamino-3-((S)-2-methylbutyrylamino)-4α-formyl-4β,14α-dimethyl-5α,9β-pregn-1(10)-en-16α-ol-11-one] — higher, > 100 µM
- CC(C)C(=O)N[C@H]1CC[C@]23CC24C(=O)C[C@]2(C)[C@@H]([C@H](C)N(C)C)[C@H](O)C[C@@]2(C)[C@@H]4CC[C@H]3[C@]1(C)CS (stereo partly shown) [Compound 76] — 32-fold higher, 43 µM
- CC(C)C(=O)N[C@H]1CCC23C[C@]24C(=O)C[C@]2(C)[C@@H]([C@H](C)N(C)C)[C@H](OC(=O)C(C)(C)C)C[C@@]2(C)[C@@H]4CC[C@H]3[C@]1(C)CNCc1ccccc1 (stereo partly drawn) [Compound 47, (20S)-3β-isobutyrylamino-20-dimethylamino-9,19-cyclo-4α-benzylaminomethyl-4β,14α-dimethyl-16α-pivalyl-5α,9β-pregnan-11-one] — 15-fold higher, 20.1 µM
- (20S)-3β-isobutyrylamino-20-methylamino-9,19-cyclo-4α-benzylaminomethyl-4β,14α-dimethyl-16α-pivalyl-5α,9β-pregnan-11-one [Compound 48] — 13-fold higher, 17.5 µM
- CC(C)C(=O)N[C@H]1CCC23C[C@]24C(=O)C[C@]2(C)[C@@H]([C@H](C)N(C)C)[C@H](OC(=O)C(C)(C)C)C[C@@]2(C)[C@@H]4CC[C@H]3[C@]1(C)CNC([Si](C)(C)C)[Si](C)(C)C (stereo partly drawn) [Compound 56, (20S)-3β-isobutyrylamino-20-dimethylamino-9,19-cyclo-4β,14α-dimethyl-4α-(bis-(trimethylsilanyl)methylamino)methyl-16α-pivalyl-5α,9β-pregnan-11-one] — higher, > 100 µM
- CC(=O)OC[C@]1(C)[C@@H](NC(=O)C(C)C)CCC23C[C@]24C(=O)C[C@]2(C)[C@@H]([C@H](C)N(C)C)[C@H](O)C[C@@]2(C)[C@@H]4CC[C@H]31 (stereo partly drawn) [Compound 41, (20S)-3β-isobutyrylamino-20-dimethylamino-9,19-cyclo-4β,14α-dimethyl-4α-acetylmethyl-5α,9β-pregnan-16α-ol-11-one] — higher, > 100 µM
- CC(C)C(=O)N[C@H]1CCC23C[C@]24C(=O)C[C@]2(C)[C@@H]([C@H](C)N(C)C)[C@H](O[Si](C)(C)C(C)(C)C)C[C@@]2(C)[C@@H]4CC[C@H]3[C@]1(C)CNC([Si](C)(C)C)[Si](C)(C)C (stereo partly drawn) [Compound 57, (20S)-3β-isobutyrylamino-20-dimethylamino-9,19-cyclo-4β,14α-dimethyl-4α-(bis-(trimethylsilanyl)methylamino)methyl-16α-(tert-butyl-dimethyl-silanyloxy)-5α,9β-pregnan-11-one] — higher, > 100 µM
- CCC(C)C1=NC2CCC34C[C@]35C(=O)C[C@]3(C)[C@@H]([C@H](C)N(C)C)[C@H](O)C[C@@]3(C)[C@@H]5CC[C@H]4[C@]2(C)CN1 (stereo partly drawn) [Compound 64, (20S)-20-dimethylamino-9,19-cyclo-4β,14α-dimethyl-(2-(S)-sec-butyl-5β-methyl-1,4,5,6-tetrahydro-pyrimidin-5-yl)-5α,9β-pregnan-16α-ol-11-one] — 95-fold lower, 0.014 µM
- CC[C@H](C)C(=O)N[C@H]1CCC23C[C@]24C(=O)C[C@]2(C)[C@@H]([C@H](C)N(C)C)[C@H](OC(C)=O)C[C@@]2(C)[C@@H]4CC[C@H]3[C@]1(C)C=O (stereo partly drawn) [Compound 59, (20S)-16α-acetyl-3β-((S)-2-methylbutyrylamino)-20-dimethylamino-9,19-cyclo-4α-formyl-4β,14α-dimethyl-5α,9β-pregnan-11-one] — higher, > 100 µM
- CC[C@H](C)C(=O)N[C@H]1CCC23C[C@]24C(=O)C[C@]2(C)[C@@H]([C@H](C)N(C)C)[C@H](O)C[C@@]2(C)[C@@H]4CC[C@H]3[C@]1(C)/C=N/Cc1ccccc1 (stereo partly drawn) [Compound 61, (20S)-20-dimethylamino-3β-((S)-2-methylbutyrylamino)-9,19-cyclo-4α-benzyliminomethyl-4β,14α-dimethyl-5α,9β-pregnan-16α-ol-11-one] — higher, > 100 µM
- CC[C@H](C)C(=O)N[C@H]1CCC23C[C@@]24[C@@H](CC[C@H]3[C@]1(C)CO)[C@]1(C)C[C@@H](O)[C@H]([C@H](C)N(C)C)[C@@]1(C)C[C@@H]4O (stereo partly drawn) [Compound 35, (20S)-20-dimethylamino-3β-((S)-2-methylbutyrylamino)-9,19-cyclo-4α-hydroxymethyl-4β,14α-dimethyl-5α,9β-pregnan-11β,16α-diol-11-one] — higher, > 100 µM
- CC(C)C(=O)N[C@H]1CCC23C[C@@]24[C@@H](CC[C@H]3[C@]1(C)CO)[C@]1(C)C[C@@H](O)[C@H]([C@H](C)N(C)C)[C@@]1(C)C[C@@H]4O (stereo partly drawn) [Compound 34, (20S)-20-dimethylamino-3β-(isobutyrylamino)-9,19-cyclo-4α-hydroxymethyl-4β,14α-dimethyl-5α,9β-pregnan-11β,16α-diol-11-one] — higher, > 100 µM
- CC(C)C1=N[C@H]2CCC34C[C@]35C(=O)C[C@]3(C)[C@@H]([C@H](C)N(C)C)[C@H](OC(=O)C(C)(C)C)C[C@@]3(C)[C@@H]5CC[C@H]4[C@]2(C)CO1 (stereo partly drawn) [Compound 38, (20S)-20-dimethylamino-9,19-cyclo-4β,14α-dimethyl-16α-pivalyl-(2′-isopropyl-3,29-dihydro-4H-[1,3]-oxazine)-5α,9β-pregn-11-one] — 7.3-fold lower, 0.181 µM
- CC[C@H](C)C(=O)N[C@H]1CC=C2C[C@H]3C(=O)C[C@]4(C)[C@@H]([C@H](C)N(C)C)[C@H](OC(C)=O)C[C@@]4(C)[C@@H]3CC[C@H]2[C@]1(C)C=O [Compound 66] — higher, > 100 µM
- C[C@@H]([C@H]1[C@H](O)C[C@@]2(C)[C@@H]3CC[C@@H]4C5(CC[C@H](NC(=O)Cc6ccccc6)[C@@]4(C)CO)C[C@@]35C(=O)C[C@]12C)N(C)C (stereo partly drawn) [Compound 6g, (20S)-9,19-cyclo-4α-hydroxymethyl-4,14α-dimethyl-20-dimethylamino-3 (phenylacetylamino)-5α,9-pregnan-16α-ol-11-one] — higher, > 5 µM
- CC(C)C(=O)N[C@H]1CCC23C[C@]24C(=O)C[C@]2(C)[C@@H]([C@H](C)N(C)C)[C@H](OS(C)(=O)=O)C[C@@]2(C)[C@@H]4CC[C@H]3[C@]1(C)CO (stereo partly drawn) [Compound 37, (20S)-3β-isobutyrylamino-20-dimethylamino-9,19-cyclo-4β,14α-dimethyl-4α-hydroxymethyl-16α-mesyl-5α,9β-pregnan-11-one] — higher, ≥ 100 µM
- CC[C@H](C)C(=O)N[C@H]1CC=C2C[C@H]3C(=O)C[C@]4(C)[C@@H]([C@H](C)N(C)C)[C@H](O)C[C@@]4(C)[C@@H]3CC[C@H]2[C@]1(C)CNCc1ccccc1 [Compound 69, (20S)-10(9->1)abeo-20-dimethylamino-3β-((S)-2-methylbutyrylamino)-4α-benzylaminomethyl-4β,14α-dimethyl-5α,9β-pregn-1(10)-en-16α-ol-11-one] — higher, > 100 µM

same assay, conditions: read-out: AChE IC50

Point of comparison: `CC[C@H](C)C1=N[C@H]2CC=C3C[C@H]4C(=O)C[C@]5(C)[C@@H]([C@H](C)N(C)C)[C@H](O)C[C@@]5(C)[C@@H]4CC[C@H]3[C@]2(C)CN1` [Compound 71, (20S)-10(9->1)-abeo-20-dimethylamino-4β,14α-dimethyl-(2-(S)-sec-butyl-5β-methyl-1,4,5,6-tetrahydro-pyrimidin-5-yl)-5α,9β-pregnan-1(10)-en-16α-ol-11-one], IC50 0.028 µM. Against it:
- C[C@@H]([C@H]1[C@H](O)C[C@@]2(C)[C@@H]3CC[C@@H]4C(=CC[C@@H]5N=C(c6ccccc6)OC[C@]54C)C[C@H]3C(=O)C[C@]12C)N(C)C [Compound 8b, (20S)-10(9->1)abeo-4,14α-dimethyl-20-dimethylamino(2′-phenyl-4′,4′-dihydro[3′,1′]oxazin)-5α,9-pregn-1(10)-en-16α-ol-11-one] — 270-fold higher, 7.65 µM
- CC[C@H](C)C(=O)N[C@H]1CC=C2C[C@H]3C(=O)C[C@]4(C)[C@@H]([C@H](C)N(C)C)[C@H](O)C[C@@]4(C)[C@@H]3CC[C@H]2[C@]1(C)/C=N/Cc1ccccc1 [Compound 68, (20S)-10(9->1)-abeo-20-dimethylamino-3-((S)-2-methylbutyrylamino)-4α-benzyliminomethyl-4β,14α-dimethyl-5α,9β-pregn-1(10)-en-16α-ol-11-one] — 28-fold higher, 0.78 µM
